In patent US20040230057A1, “Dye for optical recording medium” (priority 2003, published 2004):

Columns and labels:
[1] = UV-visible absorption spectroscopy; format: physicochemical; conditions: for absorption wavelength: UV-visible absorption spectrum; for Maximum Absorption Wavelength: methanol
Description: (§1) The results of the thermal gravametric analysis and the ultraviolent-visible absorption spectroscopy of the optical recording medium dyes obtained in the above experiment 1 to experiment 8 are summarized in Table 1. The thermal gravametric analysis and the ultraviolent-visible absorption spectroscopy detect, respectively, the thermal breakdown temperature (the temperature of a 5% thermal weight loss) and the optical property (the largest absorption wavelength, absorption coefficient of the solution). […] Further, the thermal breakdown temperatures are above 250 degrees Celsius. Accordingly, the optical recording medium dyes of the present invention comprises a broad wavelength range and has favorable thermal stability and solubility.

[2] = thermal gravimetric analysis; format: physicochemical; conditions: for Thermal Breakdown Temperature: temperature of a 5% thermal weight loss; for temperature of sudden weight loss (thermal breakdown temperature): thermal gravimetric analysis
Description: as §1

Row | SMILES | absorption wavelength [1] [nm] | Maximum Absorption Wavelength [1] [nm] | Thermal Breakdown Temperature [2] [°C] | temperature of sudden weight loss (thermal breakdown temperature) [2]
1 | CCCCN1C(=CC=Cc2ccc3ccccc3[n+]2CCCC)C(C)(C)c2cc(Cl)ccc21 [Experiment 1] | 561.8 | 561.8 | 280.2 | about 280.2 degrees Celsius
2 | CCCCN1C(=CC=Cc2ccc3ccccc3[n+]2CCCC)C(C)(C)c2c1ccc1ccccc21 [Experiment 2] | 583.0 | 583.0 | 268.6 | about 268.6 degrees Celsius
3 | CCCCN1C(=CC=Cc2ccc3ccccc3[n+]2CCCC)C(C)(C)c2c1ccc1ccccc21 [Experiment 3] | 583.0 | 583.0 | 274.2 | about 274.2 degrees Celsius
4 | CCCC[n+]1c(C=CC=C2N(C)c3ccc([N+](=O)[O-])cc3C2(C)C)ccc2ccccc21 [Experiment 4] | 548.2 | 548.2 | 309.5 | about 309.5 degrees Celsius
5 | CCCCN1C(=CC=Cc2cc[n+](CC)c3ccccc23)C(C)(C)c2cc(Cl)ccc21 [Experiment 5] | 598.4 | 598.4 | 266.3 | about 266.3 degrees Celsius
6 | CC[n+]1ccc(C=CC=C2N(C)c3ccc([N+](=O)[O-])cc3C2(C)C)c2ccccc21 [Experiment 6] | 570.0 | 570.0 | 302.7 | about 302.7 degrees Celsius
7 | CCCCN1C(=CC=Cc2cc[n+](CC)c3ccccc23)C(C)(C)c2c1ccc1ccccc21 [Experiment 7] | 625 | 625.0 | 270.7 | about 270.7 degrees Celsius
